PubChem BioAssay (NCI)
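Tested at 5 concentrations; 48 h exposure; 96-well plates; endpoints linearly interpolated, else capped at highest concentration. TGI: total growth inhibition.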

Tests used:
Test in all cases: NCI anticancer screen, dose series, 48 h
786-0 renal = tested on: 786-0 renal
ACHN renal = tested on: ACHN renal
CCRF-CEM leukemia = tested on: CCRF-CEM leukemia
HCT-116 colon = tested on: HCT-116 colon
HCT-15 colon = tested on: HCT-15 colon
HL-60(TB) leukemia = tested on: HL-60(TB) leukemia
HOP-62 NSCLC = tested on: HOP-62 NSCLC
K-562 leukemia = tested on: K-562 leukemia
OVCAR-4 ovarian = tested on: OVCAR-4 ovarian
OVCAR-5 ovarian = tested on: OVCAR-5 ovarian
RPMI-8226 leukemia = tested on: RPMI-8226 leukemia
RXF 393 renal = tested on: RXF 393 renal
SK-OV-3 ovarian = tested on: SK-OV-3 ovarian
SNB-19 CNS = tested on: SNB-19 CNS

`Cn1c2ccccc2c(=NNc2ccc(S(=O)(=O)N=C(N)N)cc2)c2ccccc21` was tested, and the TGI (786-0 renal) was 19.2 µM, the TGI (ACHN renal) was 20.1 µM and the TGI (CCRF-CEM leukemia) was 31.9 µM. It also gave a TGI (HCT-116 colon) of 17 µM, a TGI (HCT-15 colon) of 36.7 µM and a TGI (HL-60(TB) leukemia) of 38.6 µM. For the same molecule, the TGI (HOP-62 NSCLC) was 28.2 µM, the TGI (K-562 leukemia) was 18 µM and the TGI (OVCAR-4 ovarian) was 16.8 µM. It also gave a TGI (OVCAR-5 ovarian) of 20.2 µM, a TGI (RPMI-8226 leukemia) of 43.4 µM and a TGI (RXF 393 renal) of 10.8 µM. It also gave a TGI (SK-OV-3 ovarian) of 21.3 µM and a TGI (SNB-19 CNS) of 22.6 µM.

`CC(C)NC(=O)OCc1c(COC(=O)NC(C)C)c(-c2cc[n+](COC(=O)Cc3ccccc3)cc2)n2c1CCC2` gave a TGI (786-0 renal) of over 100 µM, a TGI (ACHN renal) of over 100 µM and a TGI (CCRF-CEM leukemia) of over 100 µM. The TGI (HCT-116 colon) was over 100 µM, the TGI (HCT-15 colon) was over 100 µM and the TGI (HL-60(TB) leukemia) was over 100 µM. The TGI (HOP-62 NSCLC) was over 100 µM, the TGI (K-562 leukemia) was over 100 µM and the TGI (OVCAR-4 ovarian) was over 100 µM. The TGI (OVCAR-5 ovarian) was over 100 µM, the TGI (RPMI-8226 leukemia) was over 100 µM and the TGI (RXF 393 renal) was over 100 µM. The TGI (SK-OV-3 ovarian) was over 100 µM and the TGI (SNB-19 CNS) was over 100 µM.

`O=C1CS(=O)c2ccccc2N1` (configuration not stated) was tested, and the TGI (786-0 renal) was over 100 µM, the TGI (ACHN renal) was over 100 µM and the TGI (CCRF-CEM leukemia) was over 100 µM. It also gave a TGI (HCT-116 colon) of over 100 µM, a TGI (HCT-15 colon) of over 100 µM and a TGI (HL-60(TB) leukemia) of over 100 µM. The TGI (HOP-62 NSCLC) was over 100 µM, the TGI (K-562 leukemia) was over 100 µM and the TGI (OVCAR-4 ovarian) was over 100 µM. The TGI (OVCAR-5 ovarian) was over 100 µM, the TGI (RPMI-8226 leukemia) was over 100 µM and the TGI (RXF 393 renal) was over 100 µM. The TGI (SK-OV-3 ovarian) was over 100 µM and the TGI (SNB-19 CNS) was over 100 µM.

`COc1c(N2CCCCC2)c2c(=O)c3ccccc3oc2c2c3ccccc3n(C)c12` showed a TGI (786-0 renal) of over 100 µM, a TGI (ACHN renal) of over 100 µM and a TGI (CCRF-CEM leukemia) of over 100 µM. For the same molecule, the TGI (HCT-116 colon) was over 100 µM, the TGI (HCT-15 colon) was over 100 µM and the TGI (HL-60(TB) leukemia) was over 100 µM. It also gave a TGI (HOP-62 NSCLC) of over 100 µM, a TGI (K-562 leukemia) of over 100 µM and a TGI (OVCAR-4 ovarian) of over 100 µM. It also gave a TGI (OVCAR-5 ovarian) of over 100 µM, a TGI (RPMI-8226 leukemia) of over 100 µM and a TGI (RXF 393 renal) of over 100 µM. For the same molecule, the TGI (SK-OV-3 ovarian) was over 100 µM and the TGI (SNB-19 CNS) was over 100 µM.

Molecule `O=C(NCCCN1CCN(CCCNC(=O)c2cc(-c3ccccc3)nc3ccccc23)CC1)c1cc(-c2ccccc2)nc2ccccc12` has a TGI (786-0 renal) of 21.5 µM, a TGI (ACHN renal) of 28.8 µM and a TGI (CCRF-CEM leukemia) of over 56.4 µM. The TGI (HCT-116 colon) was over 100 µM, the TGI (HCT-15 colon) was over 100 µM and the TGI (HL-60(TB) leukemia) was over 51.8 µM. It also gave a TGI (HOP-62 NSCLC) of 41.3 µM, a TGI (K-562 leukemia) of 34.2 µM and a TGI (OVCAR-4 ovarian) of over 58.4 µM. It also gave a TGI (OVCAR-5 ovarian) of over 78.2 µM, a TGI (RPMI-8226 leukemia) of over 57.8 µM and a TGI (RXF 393 renal) of over 60 µM. For the same molecule, the TGI (SK-OV-3 ovarian) was 40.2 µM and the TGI (SNB-19 CNS) was 33 µM.

`CCOC(=O)C12CCC(c3c(C)cccc3C)(O1)C(C(=O)OC)=C2C(=O)OC` (configuration not stated) was tested, and the TGI (786-0 renal) was over 10 µM, the TGI (ACHN renal) was over 10 µM and the TGI (CCRF-CEM leukemia) was over 10 µM. For the same molecule, the TGI (HCT-116 colon) was over 10 µM, the TGI (HCT-15 colon) was over 10 µM and the TGI (HL-60(TB) leukemia) was over 7.4 µM. The TGI (HOP-62 NSCLC) was over 10 µM, the TGI (K-562 leukemia) was over 10 µM and the TGI (OVCAR-4 ovarian) was over 10 µM. The TGI (OVCAR-5 ovarian) was over 9.61 µM, the TGI (RPMI-8226 leukemia) was over 10 µM and the TGI (RXF 393 renal) was over 10 µM. It also gave a TGI (SK-OV-3 ovarian) of over 10 µM and a TGI (SNB-19 CNS) of over 10 µM.

With `CC1=C(N2CC2)C(=O)C(C)=C(N2CC2)C1=O` the TGI (786-0 renal) was 0.622 µM, the TGI (ACHN renal) was 0.445 µM and the TGI (CCRF-CEM leukemia) was 3.3 µM. It also gave a TGI (HCT-116 colon) of 19.3 µM, a TGI (HCT-15 colon) of 3.31 µM and a TGI (HL-60(TB) leukemia) of 1.04 µM. The TGI (HOP-62 NSCLC) was 1.09 µM, the TGI (K-562 leukemia) was 3.92 µM and the TGI (OVCAR-4 ovarian) was 2.02 µM. For the same molecule, the TGI (OVCAR-5 ovarian) was 3.3 µM, the TGI (RPMI-8226 leukemia) was 9.8 µM and the TGI (RXF 393 renal) was 0.329 µM. For the same molecule, the TGI (SK-OV-3 ovarian) was 2.9 µM and the TGI (SNB-19 CNS) was 8.33 µM.

`CCOC(=O)Cc1ccc(Nc2nc3cc(F)c(F)cc3nc2C(=O)OCC)cc1` was tested, and the TGI (786-0 renal) was over 100 µM, the TGI (ACHN renal) was 33.5 µM and the TGI (CCRF-CEM leukemia) was over 100 µM. It also gave a TGI (HCT-116 colon) of over 100 µM, a TGI (HCT-15 colon) of over 100 µM and a TGI (HL-60(TB) leukemia) of over 100 µM. The TGI (HOP-62 NSCLC) was over 100 µM, the TGI (K-562 leukemia) was over 100 µM and the TGI (OVCAR-4 ovarian) was over 100 µM. It also gave a TGI (OVCAR-5 ovarian) of over 100 µM, a TGI (RPMI-8226 leukemia) of over 100 µM and a TGI (RXF 393 renal) of over 100 µM. The TGI (SK-OV-3 ovarian) was over 100 µM and the TGI (SNB-19 CNS) was over 100 µM.

For `CSc1c(S(C)=O)c2ccccc2n1C` (configuration not stated), the TGI (786-0 renal) was over 100 µM, the TGI (ACHN renal) was over 100 µM and the TGI (CCRF-CEM leukemia) was over 100 µM. For the same molecule, the TGI (HCT-116 colon) was over 100 µM, the TGI (HCT-15 colon) was over 100 µM and the TGI (HL-60(TB) leukemia) was over 100 µM. For the same molecule, the TGI (HOP-62 NSCLC) was over 100 µM, the TGI (K-562 leukemia) was over 100 µM and the TGI (OVCAR-4 ovarian) was over 100 µM. It also gave a TGI (OVCAR-5 ovarian) of over 100 µM, a TGI (RPMI-8226 leukemia) of over 100 µM and a TGI (RXF 393 renal) of over 100 µM. The TGI (SK-OV-3 ovarian) was over 100 µM and the TGI (SNB-19 CNS) was over 100 µM.

With `Cc1ccc(/C=C2\CCS(=O)(=O)c3ccccc3C2=O)cc1` the TGI (786-0 renal) was 34 µM, the TGI (ACHN renal) was 28.6 µM and the TGI (CCRF-CEM leukemia) was 62.3 µM. The TGI (HCT-116 colon) was 26.1 µM, the TGI (HCT-15 colon) was 27.7 µM and the TGI (HL-60(TB) leukemia) was 73.1 µM. The TGI (HOP-62 NSCLC) was 80.4 µM, the TGI (K-562 leukemia) was over 100 µM and the TGI (OVCAR-4 ovarian) was 34.8 µM. It also gave a TGI (OVCAR-5 ovarian) of 90.7 µM, a TGI (RPMI-8226 leukemia) of over 100 µM and a TGI (RXF 393 renal) of 44.2 µM. The TGI (SK-OV-3 ovarian) was 46.3 µM and the TGI (SNB-19 CNS) was 36.5 µM.

Molecule `CCOC(=O)NC(C(F)(F)F)(C(F)(F)F)P(=O)(OCC)OCC` has a TGI (786-0 renal) of over 100 µM, a TGI (ACHN renal) of over 100 µM and a TGI (CCRF-CEM leukemia) of over 100 µM. It also gave a TGI (HCT-116 colon) of over 100 µM, a TGI (HCT-15 colon) of over 100 µM and a TGI (HL-60(TB) leukemia) of over 100 µM. For the same molecule, the TGI (HOP-62 NSCLC) was over 100 µM, the TGI (K-562 leukemia) was over 100 µM and the TGI (OVCAR-4 ovarian) was over 100 µM. The TGI (OVCAR-5 ovarian) was over 100 µM, the TGI (RPMI-8226 leukemia) was 87.4 µM and the TGI (RXF 393 renal) was 44.1 µM. The TGI (SK-OV-3 ovarian) was over 100 µM and the TGI (SNB-19 CNS) was over 100 µM.

In the case of `Cc1cc(S(=O)(=O)Nc2nnc3c(Cl)cc(C(F)(F)F)cn23)c(S)cc1Cl`, the TGI (786-0 renal) is reported as over 100 µM, the TGI (ACHN renal) is reported as over 100 µM and the TGI (CCRF-CEM leukemia) is reported as over 100 µM. For the same molecule, the TGI (HCT-116 colon) was over 100 µM, the TGI (HCT-15 colon) was over 100 µM and the TGI (HL-60(TB) leukemia) was over 100 µM. The TGI (HOP-62 NSCLC) was over 100 µM, the TGI (K-562 leukemia) was over 100 µM and the TGI (OVCAR-4 ovarian) was over 100 µM. For the same molecule, the TGI (OVCAR-5 ovarian) was over 100 µM, the TGI (RPMI-8226 leukemia) was over 100 µM and the TGI (RXF 393 renal) was over 100 µM. It also gave a TGI (SK-OV-3 ovarian) of over 100 µM and a TGI (SNB-19 CNS) of over 91.4 µM.

`C[C@@]12C[C@@H](c3ccccc3O1)N1CCCSC1=N2` gave a TGI (786-0 renal) of over 100 µM, a TGI (ACHN renal) of over 100 µM and a TGI (CCRF-CEM leukemia) of over 100 µM. For the same molecule, the TGI (HCT-116 colon) was over 100 µM, the TGI (HCT-15 colon) was over 100 µM and the TGI (HL-60(TB) leukemia) was over 100 µM. It also gave a TGI (HOP-62 NSCLC) of over 100 µM, a TGI (K-562 leukemia) of over 100 µM and a TGI (OVCAR-4 ovarian) of over 100 µM. The TGI (OVCAR-5 ovarian) was over 100 µM, the TGI (RPMI-8226 leukemia) was over 100 µM and the TGI (RXF 393 renal) was over 100 µM. For the same molecule, the TGI (SK-OV-3 ovarian) was over 100 µM and the TGI (SNB-19 CNS) was over 100 µM.
